Assay results taken from patent publication US20100120715A1, “BETA-LACTAMASE INHIBITORS” (priority 2007, published 2010).

Assays:
Class A ESBL SHV-5 = molecular target: T1, Class A ESBL SHV-5 (Klebsiella pneumoniae, UniProt P0A3M1); format: biochemical, E. coli; settings: purified beta-lactamase enzyme (Examples 1 and 31-64); nitrocefin 100 μM, PBS pH 7.0; read-out: SHV-5 IC50 Range
T1 construct: made in house; host or cells: E. coli BL21(DE3) for purified enzyme; E. coli cells containing SHV-5 for extracts
T1 sequence (P0A3M1 22-286): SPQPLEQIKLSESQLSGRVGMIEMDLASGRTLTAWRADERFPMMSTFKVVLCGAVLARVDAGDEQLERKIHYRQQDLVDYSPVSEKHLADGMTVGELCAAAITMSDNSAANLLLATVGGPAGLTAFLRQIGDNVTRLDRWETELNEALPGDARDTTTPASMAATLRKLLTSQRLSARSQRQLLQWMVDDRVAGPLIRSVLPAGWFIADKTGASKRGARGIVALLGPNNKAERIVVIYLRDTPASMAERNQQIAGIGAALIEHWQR

[1] = test system: K. pneumoniae expressing the Class A ESBL CTX-M-15; assay: microbe, parasite or virus in culture; format: cell-based; settings: in the presence of fixed 8 μg/mL Ceftazidime
Class A ESBL CTXM-15 = molecular target: T2, Class A ESBL CTXM-15 (Escherichia coli, UniProt Q9EXV5); assay: β-lactamase enzyme inhibition (nitrocefin hydrolysis), CTXM-15; format: biochemical; settings: purified enzyme; nitrocefin 100 μM, PBS pH 7.0; read-out: CTXM-15 IC50 Range
T2 construct: made in house; host or cells: E. coli BL21(DE3)
T2 sequence (Q9EXV5 entry or part of it): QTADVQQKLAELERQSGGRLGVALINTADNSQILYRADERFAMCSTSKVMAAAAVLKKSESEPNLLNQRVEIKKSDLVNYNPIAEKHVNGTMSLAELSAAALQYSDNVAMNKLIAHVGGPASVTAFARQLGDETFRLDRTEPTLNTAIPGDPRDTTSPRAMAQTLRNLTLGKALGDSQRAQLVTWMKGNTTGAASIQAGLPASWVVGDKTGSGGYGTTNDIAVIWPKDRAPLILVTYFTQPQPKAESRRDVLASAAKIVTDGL
Summary of the method: (§1)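 Native untagged enzymes were expressed in E. coli BL21(DE3) and purified by cation exchange and gel filtration. Compound series (100–0.005 μM in PBS pH 7.0, before addition of an equal enzyme volume) were preincubated with enzyme 10 min at 37°C. Nitrocefin (100 μM final) hydrolysis was read kinetically at 486 nm for 10 min, and IC50 was taken as 50% reduction of initial rate versus no-inhibitor wells.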

Class C P99 AmpC = molecular target: T3, Class C P99 AmpC (Enterobacter cloacae, UniProt P05364); format: biochemical; settings: purified enzyme; nitrocefin 100 μM, PBS pH 7.0; read-out: P99 AmpC IC50 Range
T3 construct: made in house; host or cells: E. coli BL21(DE3)
T3 sequence (P05364 21-381): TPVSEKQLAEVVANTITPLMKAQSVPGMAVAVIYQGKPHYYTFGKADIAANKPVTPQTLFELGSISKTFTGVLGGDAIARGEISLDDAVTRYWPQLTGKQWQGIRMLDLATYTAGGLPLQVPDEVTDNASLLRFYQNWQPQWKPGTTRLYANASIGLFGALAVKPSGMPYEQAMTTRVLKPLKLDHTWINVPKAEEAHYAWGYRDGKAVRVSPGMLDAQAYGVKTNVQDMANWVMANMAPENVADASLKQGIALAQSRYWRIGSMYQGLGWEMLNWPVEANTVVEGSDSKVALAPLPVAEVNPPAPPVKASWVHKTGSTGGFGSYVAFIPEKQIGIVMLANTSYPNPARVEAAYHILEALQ
Summary of the method: as §1

[2] = test system: E. coli expressing the Class A ESBL SHV-5; assay: microbe, parasite or virus in culture; format: cell-based; settings: in the presence of fixed 8 μg/mL Ceftazidime
[3] = test system: E. cloacae expressing the Class C P99+ AmpC; assay: microbe, parasite or virus in culture; format: cell-based; settings: in the presence of fixed 8 μg/mL Ceftazidime
Summary of the method: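 Broth microdilution potentiation assay in cation-adjusted Mueller Hinton broth: compound was titrated 8 to 0.015 μg/mL final against a fixed 8 μg/ml cephalosporin. Strains were pre-grown 3-5 h with 50 μg/mL ampicillin and inoculated per CLSI. MIC was read visually after 16-20 h at 37° C.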

[4] = molecular target: T4, Class A carbapenemase KPC-2 (Klebsiella pneumoniae, UniProt Q9F663); assay: β-lactamase enzyme inhibition (nitrocefin hydrolysis), KPC-2; format: biochemical; settings: purified enzyme; nitrocefin 100 μM, PBS pH 7.0; read-out: KPC-2 IC50 Range
T4 construct: made in house; host or cells: E. coli BL21(DE3)
T4 sequence (Q9F663 25-293 limits assumed): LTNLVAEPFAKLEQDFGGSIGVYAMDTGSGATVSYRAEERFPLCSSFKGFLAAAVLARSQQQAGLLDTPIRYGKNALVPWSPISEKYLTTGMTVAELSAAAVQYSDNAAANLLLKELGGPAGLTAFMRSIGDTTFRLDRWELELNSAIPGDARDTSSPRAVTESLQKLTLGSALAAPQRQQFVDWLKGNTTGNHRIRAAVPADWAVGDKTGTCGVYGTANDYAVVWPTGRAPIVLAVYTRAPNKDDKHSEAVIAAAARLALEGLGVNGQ
Summary of the method: as §1

[5] = test system: K. pneumoniae expressing the Class A carbapenemase KPC-2; assay: microbe, parasite or virus in culture; settings: in the presence of fixed 8 μg/mL Ceftazidime

Compound: Nc1nc(CC(=O)N[C@@H](Cc2cccc(C(=O)O)c2O)B(O)O)cs1.O=CO [Example 39, (1R)-1-(2-Amino-thiazol-4-yl)-acetylamino-1-(3-carboxy-2-hydroxy)benzyl-methylboronic acid formate salt]
- IC50 (Class A ESBL SHV-5): < 10 nM
- MIC of example compound, K. pneumoniae CTX-M-15 + 8 μg/mL CAZ [1]: C (C represents an MIC of <1 μg/mL)
- IC50 (Class A ESBL CTXM-15): < 10 nM
- IC50 (Class C P99 AmpC): < 10 nM
- MIC of example compound, E. coli SHV-5 + 8 μg/mL CAZ [2]: C (C represents an MIC of <1 μg/mL)
- MIC of example compound, E. cloacae P99 AmpC + 8 μg/mL CAZ [3]: C (C represents an MIC of <1 μg/mL)
- IC50 [4]: 100 to 1000 nM
- MIC of example compound, K. pneumoniae KPC-2 + 8 μg/mL CAZ [5]: C (C represents an MIC of <1 μg/mL)
